The results in this text go back to patent US7470708B2, “Acidic quinoline derivatives and their use for the prevention and/or treatment of hyperglycaemia-related pathologies” (Merck Patent Gesellschaft mit Beschraenkter Haftung, priority 2003, dated 2008).

Data set [1] has as its system N0STZ rats. The data set can be described thus: Antidiabetic activity in N0STZ rats (non-insulin-dependent diabetes induced by neonatal steptozotocin). Type of data set: in vivo. The conditions noted are these: N0 STZ rat, oral, percentage change in glycaemia on D4 relative to D0. How it is done:
Study of the Antidiabetic Activity in N0STZ Rats
The antidiabetic activity of the compounds of the formula (I) via the oral route, on an experimental model of non-insulin-dependent diabetes induced in rats by means of steptozotocin, was determined as follows.
The model of non-insulin-dependent diabetes is obtained in the rats by means of a neonatal injection (on the day of birth) of steptozotocin.
The diabetic rats used are eight weeks old. The animals are housed, from the day of birth to the day of the experiment, in an animal house at a regulated temperature of 21 to 22° C. and subjected to a fixed cycle of light (from 7 a.m. to 7 p.m.) and darkness (from 7p.m. to 7 a.m.). Their food consisted of a maintenance diet, and water and food were given “ad libitum”, with the exception of fasting two hours before the tests, during which period the food is removed (post-absorptive state).
The rats are treated orally for one (D1) or four (D4) days with the test product. Two hours after the final administration of the product and 30 minutes after anaesthetizing the animals with pentobarbital sodium (Nembutal®), a 300 μl blood sample is taken from the end of the tail.
By way of example, the results obtained are collated in the table below.

Data set [2] relates to insulin secretion. The data set can be described thus: Insulin secretion test. It is filed as cell-based. The conditions noted are these: concentration of test compound 10^−5 M. From the text: According to the method described in Endocrinology, 1992 vol. 130 (1) pp. 167-178
• C corresponds to the concentration of test compound according to the invention INS. SEC. corresponds to the percentage of insulin secretion.

Structures are written as SMILES.

As for `CC(C)=CCOc1cc(C(=O)O)nc2ccc(F)cc12` [Compound 6, 6-Fluoro-4-(3-methylbut-2-enyloxy)quinoline-2-carboxylic acid], the melting point (usually the temperature of the solid-liquid transition) was above 250 °C. For the same compound, the “Percentage decrease in glycaemia at 200 mg/kg” value (from here on “Percentage decrease”) in data set [1] was −10%.
`N#Cc1ccccc1-c1ccc(COc2cc(C(=O)O)nc3ccc(F)cc23)cc1` [Compound 7, 4-(2′-Cyanobiphenyl-4-ylmethoxy)-6-fluoroquinoline-2-carboxylic acid] showed a melting point above 250 °C.
`COC(=O)c1cc(OCCCCl)c2cc(F)ccc2n1` [Compound 64, methyl 4-(3-chloropropoxy)-6-fluoroquinoline-2-carboxylate]: in data set [2], the “INS. SEC. (percentage of insulin secretion)” value is on record as 179%.
The compound `COc1ccc2nc(C(=O)[O-])cc(OCc3ccc(Br)cc3F)c2c1.[Na+]` [Compound 4, 4-(4-Bromo-2-fluorobenzyloxy)-6-methoxyquinoline-2-carboxylic acid, sodium salt] registered a melting point above 250 °C.
In the case of `CCOc1cc(C(=O)O)nc2ccc(F)cc12` [Compound 1, 4-Ethoxy-6-fluoroquinoline-2-carboxylic acid], the melting point is 205 °C. The “Percentage decrease” value in data set [1] is listed as −27%. The “INS. SEC. (percentage of insulin secretion)” value in data set [2] turned out to be 172%.
In the case of `COc1ccc(C(=O)COc2cc(C(=O)O)nc3ccc(F)cc23)cc1OC` [Compound 63, 4-[2-(3,4-dimethoxyphenyl)-2-oxoethoxy]-6-fluoroquinoline-2-carboxylic acid], in data set [2], the “INS. SEC. (percentage of insulin secretion)” value worked out at 192%.
Turning to `O=C(O)c1cc(OCc2nc3ccccc3s2)c2cc(F)ccc2n1` [Compound 3, 4-(Benzothiazol-2-ylmethoxy)-6-fluoroquinoline-2-carboxylic acid], the melting point was above 250 °C.
With `COC(=O)c1cc(OCC(C)CCl)c2cc(F)ccc2n1` (centres unmarked) [Compound 65, methyl 4-(3-chloro-2-methylpropoxy)-6-fluoroquinoline-2-carboxylate], the “INS. SEC. (percentage of insulin secretion)” value in data set [2] is reported as 161%.
Consider `O=C(O)c1cc(OC/C=C/COc2cc(C(=O)O)nc3ccc(F)cc23)c2cc(F)ccc2n1` [Compound 5, 4-({(E)-4-[(2-Carboxy-6-fluoro-4-quinolinyl)oxy]-2-butenyl}oxy)-6-fluoro-2-quinolinecarboxylic acid], for which the melting point is above 250 °C. Also, the “Percentage decrease” value in data set [1] was −17%.
The compound `O=C(O)c1cc(OCc2ccc(Br)cc2F)c2cc(F)ccc2n1` [Compound 2, 4-(4-Bromo-2-fluorobenzyloxy)-6-fluoroquinoline-2-carboxylic acid] had a melting point above 250 °C.
